± gives the standard deviation of the reports.
## *O[Si](*)(C)CCCCCCCCCCCOc1ccc(/C=C/c2ccc(C#N)cc2)cc1 (repeat unit)
  glass transition temperature: -55.00 °C

## *C(CC)COC(=O)NCCCCCCNC(=O)OCC(CC)n1c(=O)c2cc3c(=O)n(*)c(=O)c3cc2c1=O (repeat unit)
  glass transition temperature: 61.00 °C

## *CC(*)CC1CCCCC1 (repeat unit)
  glass transition temperature: 75.00 °C

## *Cc1ccc2nc(-c3cc(-c4nc5ccc(*)cc5c(=O)o4)cc(N4C(=O)c5ccccc5C4=O)c3)oc(=O)c2c1 (repeat unit)
  glass transition temperature: 322.00 °C

## *Oc1ccc(C(C)(C)c2ccc(OC(=O)OCCCOC(*)=O)cc2)cc1 (repeat unit)
  glass transition temperature: 68.10 °C

## *C(=O)Nc1c(CC)cc(Cc2cc(CC)c(NC(=O)c3ccc4c(c3)C(=O)N(c3ccc(/N=N/c5ccc(C)cc5)c(N5C(=O)c6ccc(*)cc6C5=O)c3)C4=O)c(CC)c2)cc1CC (repeat unit)
  glass transition temperature: 269.00 °C

## *CC(*)(C)C(=O)OCCN(CC)c1ccc(/N=N/c2ccc(OC)cc2)c(C)c1 (repeat unit)
  glass transition temperature: 95.00 °C

## *Oc1ccc(S(=O)(=O)c2ccc(Oc3ccc(C(C)(C)c4ccc(*)c(C(O)(C(F)(F)F)C(F)(F)F)c4)cc3C(O)(C(F)(F)F)C(F)(F)F)cc2)cc1 (repeat unit)
  glass transition temperature: 167.00 °C

## *Oc1ccc(C2(c3ccc(OC(=O)c4cccc(C(*)=O)c4)cc3)c3ccccc3-c3ccccc32)cc1 (repeat unit)
  glass transition temperature: 269.50 °C

## *CC1CCC(CNC(=O)CCCCCCCCCCC(=O)N*)CC1 (repeat unit)
  glass transition temperature: 85.00 °C

## *CCCCCCNC(=O)CCc1ccc(C(C)CC(=O)N*)cc1 (repeat unit)
  glass transition temperature: 77.00 °C

## *CC(O)COc1ccc(C(C)(C)c2ccc(OCC(O)COc3c(C)cc(S(=O)(=O)c4cc(C)c(O*)c(C)c4)cc3C)cc2)cc1 (repeat unit)
  glass transition temperature: 137.50 °C

## *CC(*)(C)C(=O)NC(C)c1cccc2ccccc12 (repeat unit)
  glass transition temperature: 171.00 °C

## *CCCC(C)(C)CNC(=O)CCCCCC(=O)N* (repeat unit)
  glass transition temperature: 70.50 °C

## *Oc1c(C)cc(-c2cc(C)c(Oc3ccc(C(=O)c4ccc5cc(C(=O)c6ccc(*)cc6)ccc5c4)cc3)c(C)c2)cc1C (repeat unit)
  glass transition temperature: 270.00 °C

## *CC(*)(C)C(=O)Oc1ccc(C#N)cc1 (repeat unit)
  glass transition temperature: 155.00 °C

## *Oc1ccc(NC(=O)c2ccc(Oc3ccc(C(=O)Nc4ccc(Oc5ccc(C6(c7ccc(*)cc7)C7CC8CC(C7)CC6C8)cc5)cc4)cc3)cc2)cc1 (repeat unit)
  glass transition temperature: 230.00 °C

## *Nc1ccc(NC(=O)c2cc(NC(=O)c3ccncc3)cc(C(*)=O)c2)cc1 (repeat unit)
  glass transition temperature: 327.00 °C

## *c1ccc(Oc2ccc(-c3csc(/N=C/c4ccc(OCCCCCCCCOc5ccc(/C=N/c6nc(*)cs6)cc5)cc4)n3)cc2)cc1 (repeat unit)
  glass transition temperature: 150.00 °C

## *C(F)(F)C1(*)OC(F)(F)C(F)(F)O1 (repeat unit)
  glass transition temperature: 108.00 °C

## *CC(*)c1cccc(O)c1 (repeat unit)
  glass transition temperature: 169.00 °C

## *c1ccc(Oc2ccc(C(=O)c3ccc(C(=O)c4ccc(Oc5ccc(-c6cc(*)n(-c7ccccc7)n6)cc5)cc4)cc3)cc2)cc1 (repeat unit)
  glass transition temperature: 205.00 °C

## *c1cc(CCCC)c(*)s1 (repeat unit)
  glass transition temperature: 54.50 ± 6.4 °C

## *CCCCCCCCCn1c2ccccc2c2cc(/C=C(\C#N)C(=O)OCCCCCCOC(=O)/C(C#N)=C/c3ccc4c(c3)c3ccccc3n4*)ccc21 (repeat unit)
  glass transition temperature: 96.40 °C

## *c1ccc([Si](C)(C)[Si](*)(C)C)s1 (repeat unit)
  glass transition temperature: 15.00 °C

## *c1ccc2c(c1)C(=O)N(c1ccc(S(=O)(=O)c3ccc(N4C(=O)c5ccc(C(F)(F)C(F)(F)C(*)(F)F)cc5C4=O)cc3)cc1)C2=O (repeat unit)
  glass transition temperature: 259.00 °C

## *CC(*)(C)C(=O)Oc1ccc(C(=O)Oc2ccc(-c3ccccc3)cc2)cc1 (repeat unit)
  glass transition temperature: 100.00 °C

## *c1ccc(Oc2ccc(Oc3ccc(-c4nnc(*)c5c(-c6ccc(F)cc6)c(-c6ccc(F)cc6)c(-c6ccc(F)cc6)c(-c6ccc(F)cc6)c45)cc3)cc2)cc1 (repeat unit)
  glass transition temperature: 309.00 °C

## *C(=O)Nc1ccc(Oc2ccc(Oc3ccc(NC(=O)c4ccc5c(c4)C(=O)N(c4ccc(Oc6ccc(C7(c8ccc(Oc9ccc(N%10C(=O)c%11ccc(*)cc%11C%10=O)cc9)cc8)CC8CC7C7CCCC87)cc6)cc4)C5=O)cc3)cc2)cc1 (repeat unit)
  glass transition temperature: 257.00 °C

## *Oc1ccc(Sc2ccc(Oc3ccc(-c4ccc(-c5ccc(-c6ccc(*)c(C(F)(F)F)c6)cc5)cc4)cc3C(F)(F)F)cc2)cc1 (repeat unit)
  glass transition temperature: 176.50 °C

## *Oc1ccc(C(C)(CC)c2ccc(OC(*)=O)c(Cl)c2)cc1Cl (repeat unit)
  glass transition temperature: 142.00 °C

## *Oc1ccc(Oc2ccc(NC(=O)c3cc(C(=O)Nc4ccc(*)cc4)cc(C(C)(C)C)c3)cc2)cc1 (repeat unit)
  glass transition temperature: 195.50 °C

## *Cc1cccc(CNC(=O)/C=C(\C)C(=O)N*)c1 (repeat unit)
  glass transition temperature: 135.00 °C

## *c1ccc(Oc2ccc(C3(c4ccc(Oc5ccc(N6C(=O)c7ccc(Oc8ccc(C9(c%10ccc(Oc%11ccc%12c(c%11)C(=O)N(*)C%12=O)cc%10)CCCCCCCCCCC9)cc8)cc7C6=O)cc5)cc4)CC4CCC3C4)cc2)cc1 (repeat unit)
  glass transition temperature: 259.00 °C

## *CCCCOC(=O)O* (repeat unit)
  glass transition temperature: -27.00 °C

## *c1ccc(NC(=O)c2ccc(OCCOCCOCCOCCOCCOc3ccc(C(=O)Nc4ccc5[nH]c(*)nc5c4)cc3)cc2)cc1 (repeat unit)
  glass transition temperature: 125.00 °C

## *CC(O)COc1ccc(C(C)(C)c2ccc(OCC(O)COc3cccc(NC(=O)CCCCCCCCCCC(=O)Nc4cccc(O*)c4)c3)cc2)cc1 (repeat unit)
  glass transition temperature: 90.00 °C

## */C=C/c1ccc(*)c(OCc2cc(OCCC(C)CCCC(C)C)cc(OCC(CC)CCCC)c2)c1 (repeat unit)
  glass transition temperature: 227.00 °C

## *CC(OC(C)=O)C(COC(=O)O*)OC(C)=O (repeat unit)
  glass transition temperature: 58.60 °C

## *C(=O)c1ccc2c(c1)C(=O)N(c1ccc(C(=O)c3cccc(C(=O)c4ccc(N5C(=O)c6ccc(*)cc6C5=O)cc4)c3)cc1)C2=O (repeat unit)
  glass transition temperature: 276.00 °C

## *CCCCCCOC(=O)OCCCCCCCCCCCCOC(=O)OCCCCCCn1c(=O)c2cc3c(=O)n(*)c(=O)c3cc2c1=O (repeat unit)
  glass transition temperature: -9.00 °C

## *CC(*)OC(=O)c1cccc(C)c1 (repeat unit)
  glass transition temperature: 49.00 °C

## *c1ccc(Oc2ccc(C3(c4ccc(Oc5ccc(N6C(=O)c7ccc(Oc8ccc(C9(c%10ccc(Oc%11ccc%12c(c%11)C(=O)N(*)C%12=O)cc%10)CCC(c%10ccccc%10)CC9)cc8)cc7C6=O)cc5)cc4)CC4CCC3C4)cc2)cc1 (repeat unit)
  glass transition temperature: 245.00 °C

## *Oc1ccc(C2(c3ccc(OC(=O)c4ccc(C(*)=O)cc4)cc3)CCc3ccccc32)cc1 (repeat unit)
  glass transition temperature: 312.00 °C

## *Cc1cc2cc(C(=O)Nc3ccc(S(=O)(=O)c4ccc(NC(=O)c5cc6cc(*)c(OC(=O)COc7ccc8ccc(=O)oc8c7)cc6oc5=O)cc4)cc3)c(=O)oc2cc1OC(=O)COc1ccc2ccc(=O)oc2c1 (repeat unit)
  glass transition temperature: 233.00 °C
